# Several values for one entry are separate records, joined by “and”; a condition that tells them apart may be missing. Identical values can stand only once. Marks after values point to notes of the source that are not given here. Ends that are not written are not given here. * marks the point of attachment. X1 = 2,3‑bispalmitoyloxy‑(2S)‑propyl, CCCCCCCCCCCCCCCC(=O)OC[C@@H](C*)OC(=O)CCCCCCCCCCCCCCC; Propyl(2R-PamO,3-PamO) = CCCCCCCCCCCCCCCC(=O)OC[C@H](C*)OC(=O)CCCCCCCCCCCCCCC
# Tests used:
# [1] = test system: peritoneal leukocytes; assay: Leukocyte inflow into the peritoneal cavity after intraperitoneal injection; type: in vivo, NMRI mice; settings: for PEC: 72 hours
# Protocol: The model of inflow of granulocytes and macrophages into the peritoneal cavity of the mouse served as an example of the effectiveness of synthetic lipopeptides or liposomes into which such lipopeptides were incorporated. NMRI-outbred mice were used as experimental animals in order to exclude genetic peculiarities.
# At time 0, the following preparations are injected in a sterile manner and in physiological sodium chloride solution into the peritoncal cavity of the experimental animals. Groups of 6 mice were killed after different times, the peritoneal cavity was washed with 1.2 ml of sterile sodium chloride solution and the number of leukocytes and the leukocyte composition was determined in this cell suspension.
# Here, as above, groups of 5 NMRI mice were treated with different amounts of R-MALP-2=S-[2,3-Bispalmitoyloxy-(2R)-propyl]cysteinyl-GNNDESNISFKEK (SEQ ID NO:10) or S-MALP-2=S-[2,3-Bispalmitoyloxy-(2S)-propyl]cysteinyl-GNNDESNISFKEK (SEQ ID NO:8)applied intraperitoneally, and after 3 days the total number as well as the composition of the peritoneal leukocytes were determined.
# [2] = test system: skin of NMRI mice; assay: Intracutaneous application in the skin: leukocyte accumulation and new tissue formation; type: in vivo; settings: 2 μg intracutaneously
# Protocol: The following experiment was carried out in order to show the effect of MALP-2 upon intracutaneous application.
# [3] = test system: wounds; assay: Wound-healing experiment; type: in vivo, (diabetic) C57BLKS/J-m+/+-Lepr^db mice; settings: 5 μg in 100 μL into the wound each day up to day 4, diabetic mice
# Protocol: A wound-healing experiment was carried out as follows. On day 1, (diabetic) C57BLKS/J-m+/+-Lepr^db mice were shaved on the back. On day 0, the animals were anesthetized with ether and the backs were disinfected with Braunoderm. After that, circular regions (1.3 cm diameter) were cut from the skin of the back of each mouse. The edges of the wound were treated with benzoin tincture; then 100 μL of the MALP-2 preparation or of the vehicles were introduced into each wound (10 mice for each treatment group). The wounds were covered with transparent patches of Tegaderm. Each day, up to day 4, 100 μL of the preparation (content 5 μg of MALP-2) or vehicle preparation was injected into the wound bed through the Tegaderm patches or placed in the wound when the bandage was changed. The mice were kept individually in separate cages. In order to avoid infections, baytril (Bayer) was introduced in the drinking water (50 mg/L of enrofloxacin). The bandages were changed once a week under ether anesthesia, and the wound edges were recorded on microscope slides. The areas shown were determined with a standard CCD camera using Scionlmage software. The wounds were checked visually for infections; liquid samples from obviously infected wounds were tested on blood agar plates. Mice with infected wounds were removed from further analyses.
# [4] = test system: abdominal sepsis; assay: Colon ascendens stent peritonitis model, survival after pretreatment; type: in vivo, C57BL/6 mice; settings: 2 μg i.p. two days before the surgical intervention
# Protocol: “Colon ascendens stent peritonitis” is a new model for abdominal sepsis, which may follow surgical intervention [Zantl et al., Infekt. Immun., 66:2300-2309 (1998)]. The following experiments were carried out in order to evaluate the ability of MALP-2 to increase the survival rate in this model. Groups of 12 to 18 C57BL/6 mice were injected intraperitoneally with 2 μg of S-MALP-2 in 200 μL of physiological sodium chloride solution or with the same volume of physiological sodium chloride solution either 2 or 4 days before surgical intervention. The surgical intervention was carried out under ether anesthesia. The abdomen was disinfected with 70% ethanol and then opened by section in the middle line (1 cm). A venous catheter (16 gauge) was inserted into the lumen of the […] colon and secured with two stitches using Ethilon thread (7/0). Then the inner needle of the stent was removed, the catheter was shortened to a length of a few millimeters and a small drop of feces was pressed out from the catheter. The peritoneal cavity was rinsed with 0.5 Ml of sodium chloride solution before closing the abdomen. Among the mice with the control, sodium chloride solution (18 per group), none lived longer than 90 h. […]
# [5] = test system: skin sections; assay: Infiltration of cells and proliferation by nucleic acids in skin sections after intracutaneous injection; type: in vivo, C57BLKS/J mice
# Protocol: 1. Determination of infiltration of cells and proliferation by measurement of nucleic acids in skin sections after intracutaneous (ic) injection of various MALP-2 doses. On day 1, the back of C57BLKS/J mice was shaved and hair was removed with Veet. On day 0, the animals were anesthetized with metofane; various doses of MALP-2, dissolved in 30 percent 2-propanol, were injected in volumes of up to 10 μL onto the back (ic). Corresponding volumes of the vehicle without MALP-2 were injected onto the back of the same mice at another location. The animals were killed 10 days later, and punched skin sections (diameter 0.8 cm) were taken from the MALP-2 injection sites and from the control injection sites. The skin biopsies were defatted by extraction with methanol, methanol/chloroform (1+1) and chloroform for 15 minutes and were hydrolyzed in 10 N Hcl overnight at 110° C. The samples were dried, taken up in water and clarified by filtration through a sterile filter (0.2 μm); the nucleic acids were determined by measuring the absorption at 260 nm. […] At this dose, the nucleic acid content increased at the MALP-2 injection site by 97±43% in comparison to the corresponding control biopsy (4 animals per group).
# [6] = test system: wounds; assay: Cell colonization and proliferation (nucleic acids) in treated wounds; type: in vivo, C57BLKS/J-m+/+Lepr^db mice (diabetic); settings: diabetic mice, after 10 days
# Protocol: 2. Cell colonization and proliferation were measured in the skin section (0.8 cm diameter) of wounds which were treated with various amounts of MALP-2. For this experiment, (C57BLKS/J-m+/+Lepr^db mice (diabetic) were shaved on the back and hair was removed with Veet. The animals were anesthetized with metofane and their backs were disinfected with Braunol. Then circular skin segments (0.8 cm diameter) were taken from the back of each mouse. The wounds were covered with transparent hydrofilm (Hartmann, Germany); MALP-2 or other vehicles were injected into the wound bed through the film in a volume of 50 μL. After 10 days, the animals were killed; the thin layer of cells, which closes the wound, was sectioned ([…]). The punched samples were hydrolyzed and the nucleic acids determined as before. […] At this dose, 349±24 μg of nucleic acid per biopsy sample were found in the animals treated with MALP-2 while the value was 142±22 μg in the comparison samples (4 animals per group; p<0.0001).
substance,measurement,setting,value
"S-[2,3-Bispalmitoyloxy-(2R)-propyl]cysteinyl-GNNDESNISFKEK (C(Propyl(2R-PamO,3-PamO))GNNDESNISFKEK) [R-MALP-2, reference compound]",PEC,"[1]; 10 μg i.p., group mean φ of 5",8.64 ± 3 ×10^6
same,PEC,"[1]; 10 μg i.p., individual animals A-E",11.1 ×10^6 and 4.05 ×10^6 and 11.4 ×10^6 and 7.65 ×10^6 and 9 ×10^6
"S-[2,3-Bispalmitoyloxy-(2S)-propyl]cysteinyl-GNNDESNISFKEK (C(X1)GNNDESNISFKEK) [S-MALP-2]",PEC,"[1]; 1 μg i.p., group mean φ of 5",10.2 ± 2.2^a ×10^6
same,PEC,"[1]; 1 μg i.p., individual animals A-E",9.1 ×10^6 and 10.8 ×10^6 and 9.35 ×10^6 and 13.7 ×10^6 and 7.9 ×10^6
same,PEC,"[1]; 5 μg i.p., group mean φ of 5","14.5 ± 1.9^a,b ×10^6"
same,PEC,"[1]; 5 μg i.p., individual animals A-E",14.4 ×10^6 and 15.2 ×10^6 and 17.3 ×10^6 and 13.1 ×10^6 and 12.5 ×10^6
same,"in vivo effect on peritoneal leukocytes, S-MALP-2 compared with R-MALP-2","[1]; i.p., after 3 days, groups of 5 NMRI mice",clearly more effective
same,accumulation of leukocytes at the injection site,[2]; after 3 days,a clear accumulation of leukocytes is observed
same,formation of new tissue and vessels,[2]; after 6 days,new tissue and vessels are formed
same,"wound healing (wound area, FIG. 7)",[3],significant acceleration of wound healing
same,animals surviving for 150 h or longer,[4],4 out of 12
"S-[2,3-bispalmitoyloxy-(2RS)-propyl]cysteinyl-GNNDESNISFKEK [MALP-2]",Peritoneal cells,"[1]; 9 μg i.p., after 72 hours, groups of 6 animals, mean",11.2 ± 3.1^b ×10^6
same,increase of nucleic acid content at the injection site in comparison to the control biopsy,"[5]; 5 μg per injection site ic, 10 days, 4 animals per group",97±43%
same,optimal dose per injection site,"[5]; intracutaneous injection, skin biopsy 10 days later",5 µg
same,nucleic acid per biopsy sample,"[6]; 5 μg per wound, 4 animals per group",349 ± 24 µg
same,optimal dose per wound,[6]; injected into the wound bed,5 µg

# Source: patent publication US20050192217A1, “Utilization of lipopeptides or lipoproteins in wound treatment and infection prophylaxis” (priority 1998, published 2005)
